This is an account of results in US8436039B2, “Inhibitors of the ATB(0,+) transporter and uses thereof” (Georgia Health Sciences University Research Institute, Inc., priority 2008, dated 2013).

In the assay the target is T1, human ATB^0,+ (Homo sapiens, UniProt Q9UN76).
T1 construct: The human ATB^0,+ cDNA was cloned from an MCF7 cell (a human mammary epithelial cancer cell line) cDNA library; expressed in transfected cells; host or cells: Xenopus laevis oocytes injected with 50 ng capped cRNA
T1 sequence (Q9UN76 1-642): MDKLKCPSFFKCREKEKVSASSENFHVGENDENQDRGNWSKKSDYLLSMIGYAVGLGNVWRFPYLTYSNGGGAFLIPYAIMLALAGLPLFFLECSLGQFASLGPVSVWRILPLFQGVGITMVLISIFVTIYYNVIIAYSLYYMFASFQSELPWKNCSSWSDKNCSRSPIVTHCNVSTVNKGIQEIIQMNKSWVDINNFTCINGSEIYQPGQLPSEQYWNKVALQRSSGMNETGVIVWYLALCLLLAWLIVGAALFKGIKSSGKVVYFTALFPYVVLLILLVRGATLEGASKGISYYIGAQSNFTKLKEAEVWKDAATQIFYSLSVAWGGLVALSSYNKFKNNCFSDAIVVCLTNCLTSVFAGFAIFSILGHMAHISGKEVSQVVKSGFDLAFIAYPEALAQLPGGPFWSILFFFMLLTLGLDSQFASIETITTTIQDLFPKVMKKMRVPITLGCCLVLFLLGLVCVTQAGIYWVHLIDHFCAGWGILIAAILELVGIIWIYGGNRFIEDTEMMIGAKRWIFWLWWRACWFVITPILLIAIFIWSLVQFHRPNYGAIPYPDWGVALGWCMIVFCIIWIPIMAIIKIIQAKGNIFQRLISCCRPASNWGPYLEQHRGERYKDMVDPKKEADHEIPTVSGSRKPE
Description: Block of inward currents induced by amino acid mixture simulating plasma in X. laevis oocytes expressing human ATB^0,+. Type of assay: cell-based. Here is the method: Capped cRNA from the cloned mouse or human ATB^0,+ cDNA was synthesized using the mMESSAGE mMACHTNE kit (Ambion, Austin, Tex., U.S.A.). Mature oocytes (stage IV or V) from X. laevis were injected with 50 ng of cRNA. Uninjected oocytes served as controls. The oocytes were used for electrophysiological studies 3-6 days after cRNA injection. Electrophysiological studies were performed by the two-microelectrode voltage-clamp method (Nakanishi et al., 2001, J. Physiol. 532, 297-304). Oocytes were superfused with an NaCl-containing buffer (100 mM NaCl, 2 mM KCl, 1 mM MgCl2, 1 mM CaCl2, 3 mM Hepes, 3 mM Mes and 3 mM Tris, pH 7.5), followed by the same buffer containing tryptophan derivatives. The membrane potential was clamped at −50 mV. The differences between the steady-state currents measured in the presence and absence of substrates were considered as the substrate-induced currents. In the analysis of the saturation kinetics of substrate-induced currents, the kinetic parameter K0.5 (i.e. substrate concentration necessary for induction of half-maximal current) was calculated by fitting the values of the substrate-induced currents to the Michaelis-Menten equation. The Na^+ and Cl^− activation kinetics of substrate-induced currents were analysed by measuring the substrate-specific currents in the presence of increasing concentrations of Na^+ (concentration of Cl^− kept constant at 100 mM) or in the presence of increasing concentrations of Cl^− (concentration of Na^+ kept constant at 100 mM). In these experiments, the composition of the superfusion buffer was modified to contain 2 mM potassium gluconate, 1 mM MgSO4 and 1 mM calcium gluconate in place of KCl, MgCl2 and CaCl2 respectively. The data from these experiments were analysed by the Hill equation to determine the Hill coefficient (h; number of Na^+ and Cl^− ions involved in the activation process). The kinetic parameters were determined by using the commercially available computer program Sigma Plot, version 6.0 (SPSS, Chicago, Ill., U.S.A.). Uninjected oocytes were used to determine the currents induced by tryptophan derivatives due to entry via transporters that may be constitutively expressed in the oocytes. At a concentration of 2.5 mM, the currents induced by these compounds were in the range of 0-3 nA in uninjected oocytes. These currents were less than 2% of the corresponding currents induced in ATB^0,+ cRNA-injected oocytes. Therefore the endogenous currents associated with the constitutively expressed transporters were not considered in the analysis of kinetic parameters of ATB^0,+ transport activity.
These studies with α-methyl-DL-tryptophan as a blocker of ATB^0,+ were carried out with L-tryptophan at sub-saturating concentrations. […] Therefore, using the Xenopus oocyte heterologous expression system, we monitored the transport activity of human ATB^0,+ in the presence of an amino acid mixture consisting of 18 different amino acids, each at its respective physiological concentration found in plasma (Glew et al., 2004, Clin. Chim. Acta 342, 179-185) (Table 1). Inward currents were detected under these conditions in oocytes expressing human ATB^0,+. […] We then monitored the ability of α-methyl-DL-tryptophan to block the inward currents induced by the same mixture of amino acids in oocytes expressing human ATB^0,+ (FIG. 4B). […]

“And” between values parts separate entries of the source, which are not always exact repeats. Equal values may be shown once.

Regarding `CC(N)(Cc1c[nH]c2ccccc12)C(=O)O` (racemic) [α-methyl-DL-tryptophan], the inhibition at 2500 µM (2.5 mM, 18 amino acids at plasma concentrations, read-out: maximal inhibition of amino acid mixture-induced currents) was roughly 85%. In addition, the IC50 (18 amino acids at normal plasma concentrations, read-out: concentration necessary to elicit 50% of maximal inhibition (IC50) of amino acid mixture-induced currents) was ~250 µM and 255 µM.

For orientation: inhibition means how much of the control response was suppressed.
